Reference: patent US20130172424A1, “METHODS AND COMPOSITIONS FOR TREATING DIABETES” (GOLDEN BIOTECHNOLOGY CORPORATION, priority 2011, published 2013)
Several values for one entry are separate records, joined by “and”; a condition that tells them apart may be missing. Equal entries are not always repeated.

Tested on: diabetes induced by STZ in SD rats
Experiment: Treatment of diabetes induced by STZ in rats
Assay type: in vivo, Sprague-Dawley rat
Settings: Group B (AopE+STZ+Compound 1), individual rats ID 1-4, before meals
Method: The effects of exemplary cyclohexnone compound 1 in treating a subject suffering from diabetes were investigated in a Sprague-Dawley rat model over a four week period. The example describes the results of such experiments.
In vivo models. A rat model of diabetes was established by low-dose streptozotocin (STZ, 60 mg/kg) injection in SD rats. Rats of the same batch fed with normal chow (NRC) were used as a control (n=4).
Study group. Group A: diabetes without treatment group, n=6; Group B: AopE+STZ+Compound 1, n=4. […] Rats of Group B (treatment group) have the following blood sugar data before meals: […]

COC1=C(OC)C(O)C(C/C=C(\C)CC/C=C(\C)CCC=C(C)C)C(C)C1=O (centres unmarked) [Compound 1, 4-hydroxy-2,3-dimethoxy-6-methyl-5-(3,7,11-trimethyldodeca-2,6,10-trienyl)cyclohex-2-enone]
2nd week blood sugar level (2nd week): 421 mg/dL and 330 mg/dL and 261 mg/dL and 484 mg/dL
4th week Blood sugar level (4th week, untreated diabetic rats about 400-500 mg/dl, control about 100 mg/dl): 147 mg/dL and 149 mg/dL and 89 mg/dL and 388 mg/dL
